From US7384959B2, “Treatment of convulsive states” (priority 1999, dated 2008)
Marks after values point to notes of the source that are not given here.

What was measured:
rat [1] = experiment: barbital interaction (sleep induction) test; assay type: in vivo; conditions: for NUMBER OF RATS SLEEPING: 10 rats per group; for SLEEP DURATION mean ± s.e.m.: maximum 6 hours after barbital injection
From the text: (§1) The following Tables report the results of the Irwin, PTZ and barbital interaction (sleep induction) tests. Description of these tests may be found in Psychopharmacologica, 13:222-257 (1968), Krall et al, Epilepsia 19:409-428 (1978), and Simon et al, J. Pharmacol, Paris 13:241-252 (1982). See also Roux et al, Phoenix international Pharmacology Reports Nos. D30.2061/2 and D99.021/2.
In Table 3, the following apply: Student's t Test: NS=Not Significant; *=p<0.05; **=p<0.01; ***=<0.001 Fisher's Exact Test: (number of rats sleeping) No indication=Not Significant; +=p<0.05; ++=p<0.01; +++=p<0.001 • (#): maximum=6 hours after barbital injection (taken 50 minutes after barbital injection).

[2] = intravenous administration; Srinivas 1993; cited from earlier work
patients with epilepsy = conditions: ABPI Compendium 1999-2000; cited from earlier work
rat [3] = experiment: Pentylenetetrazole (PTZ) Seizure Test; assay type: in vivo; conditions: for NUMBER OF CLONIC CONVULSIONS number of rats / NUMBER OF DEATHS number of rats / NUMBER OF TONIC CONVULSIONS number of rats: 10 rats per group; for NUMBER OF CLONIC CONVULSIONS number of rats / NUMBER OF DEATHS number of rats / NUMBER OF TONIC CONVULSIONS number of rats / NUMBER OF CLONIC CONVULSIONS % antagonism / NUMBER OF DEATHS % antagonism / NUMBER OF TONIC CONVULSIONS % antagonism: observed during 60 minutes
From the text: as §1
Table 2a reports mean results based on animals showing the symptoms (minimum=3 animals). Table 2b reports results observed during 60 minutes. In these Tables: Student's t Test: NS=Not Significant; *=p<0.05; ** p<0.01; ***=p<0.001 Fisher's Exact Test: No indication=Not Significant; **=p<0.01; ***=p<0.001

[4] = tested on: attention-deficit hyperactivity disorder (ADHD); conditions: Patrick et al 1987; cited from earlier work

## COC(=O)C(c1ccccc1)C1CCCCN1 (racemic) [d,l-MPH, d,l-threo-methylphenidate]
Rat [1]; 0.25 mg/kg s.c. −30 min
  SLEEP DURATION % change from control: +51%
  NUMBER OF RATS SLEEPING: 9
  SLEEP DURATION mean ± s.e.m.: 94.2 ± 18.3 NS min
Rat [1]; 0.5 mg/kg s.c. −30 min
  SLEEP DURATION % change from control: −19%
  NUMBER OF RATS SLEEPING: 8
  SLEEP DURATION mean ± s.e.m.: 50.2 ± 16.2 NS min
Rat [1]; 1 mg/kg s.c. −30 min
  SLEEP DURATION % change from control: −100%
  NUMBER OF RATS SLEEPING: 0 +++
  SLEEP DURATION mean ± s.e.m.: 0.0 ± 0.0*** min
Rat [1]; 2 mg/kg s.c. −30 min
  SLEEP DURATION % change from control: −70%
  NUMBER OF RATS SLEEPING: 4 +
  SLEEP DURATION mean ± s.e.m.: 19.0 ± 12.6 min
Rat [1]; 4 mg/kg s.c. −30 min
  SLEEP DURATION % change from control: −100%
  NUMBER OF RATS SLEEPING: 0 +++
  SLEEP DURATION mean ± s.e.m.: 0.0 ± 0.0*** min
[2]
  time after dosing with similar plasma levels of the two enantiomers: around 1.5 hours
Patients with epilepsy
  effect on seizure frequency: can cause an increase in seizure frequency in a small number of such patients

## Cn1c(=O)c2c(ncn2C)n(C)c1=O [Caffeine]
Rat [1]; 16 mg/kg s.c. −30 min
  SLEEP DURATION % change from control: −99%
  NUMBER OF RATS SLEEPING: 1 +++
  SLEEP DURATION mean ± s.e.m.: 0.5 ± 0.5*** min

## CN1C(=O)CN=C(c2ccccc2)c2cc(Cl)ccc21 [DIAZEPAM, diazepam, reference compound]
Rat [3]; 4 mg/kg s.c. −30 min
  NUMBER OF CLONIC CONVULSIONS number of rats: 0+++
  NUMBER OF DEATHS number of rats: 0+++
  NUMBER OF TONIC CONVULSIONS number of rats: 0+++
  NUMBER OF CLONIC CONVULSIONS % antagonism: 100%
  NUMBER OF DEATHS % antagonism: 100%
  NUMBER OF TONIC CONVULSIONS % antagonism: 100%

## CCOC(=O)c1ncn2c1CN(C)C(=O)c1cc(N=[N+]=[N-])ccc1-2 [RO 15-4513, reference compound]
Rat [3]; 2 mg/kg s.c. −30 min
  NUMBER OF CLONIC CONVULSIONS number of rats: 10
  NUMBER OF DEATHS number of rats: 10
  NUMBER OF TONIC CONVULSIONS number of rats: 10
  NUMBER OF CLONIC CONVULSIONS % antagonism: 0%
  NUMBER OF DEATHS % antagonism: 0%
  NUMBER OF TONIC CONVULSIONS % antagonism: 0%
Rat [3]; 2 mg/kg s.c. −30 min, rat
  LATENCY TO CLONIC CONVULSIONS % change from control: −37%
  LATENCY TO CLONIC CONVULSIONS mean ± s.e.m.: 345.0 ± 59.4* sec
  LATENCY TO DEATHS % change from control: −36%
  LATENCY TO DEATHS mean ± sem.: 837.0 ± 116.7** sec
  LATENCY TO TONIC CONVULSIONS % change from control: −42%
  LATENCY TO TONIC CONVULSIONS mean ± sem.: 681.0 ± 102.6** sec

## COC(=O)[C@H](c1ccccc1)[C@H]1CCCCN1 [d-MPH, d-threo-Methylphenidate]
Rat [1]; 0.25 mg/kg s.c. −30 min
  SLEEP DURATION % change from control: −83%
  NUMBER OF RATS SLEEPING: 6
  SLEEP DURATION mean ± s.e.m.: 10.5 ± 5.3** min
Rat [1]; 0.5 mg/kg s.c. −30 min
  SLEEP DURATION % change from control: −65%
  NUMBER OF RATS SLEEPING: 8
  SLEEP DURATION mean ± s.e.m.: 21.6 ± 13.5* min
Rat [1]; 1 mg/kg s.c. −30 min
  SLEEP DURATION % change from control: −97%
  NUMBER OF RATS SLEEPING: 3 ++
  SLEEP DURATION mean ± s.e.m.: 2.1 ± 1.5*** min
Rat [1]; 2 mg/kg s.c. −30 min
  SLEEP DURATION % change from control: −100%
  NUMBER OF RATS SLEEPING: 0 ++
  SLEEP DURATION mean ± s.e.m.: 0.0 ± 0.0*** min
[4]
  pharmacological action in the treatment of ADHD: is the property of the d-enantiomer
